According to US10138211B2, “Crystalline forms of olaparib and manufacturing processes therefor” (ScinoPharm Taiwan, Ltd., priority 2016, dated 2018):
In brackets after ≈: the same amount, converted by molar mass.

Tests used:
[1] = Solubility of olaparib at room temperature in solvents; type: physicochemical; details: for solubility: organic solvent or mixture
Description: (§1) As used herein, the term “solvent” refers to a liquid substance capable of dissolving olaparib at a concentration of at least about 2.5% (w/w) at 60° C. The term “anti-solvent” refers to a liquid substance which is not capable of dissolving olaparib at a concentration of […] about 2.5% (w/w) at 60° C.

[2] = Solubility of olaparib at 60° C. in solvents; type: physicochemical
Description: as §1

O=C(c1cc(Cc2n[nH]c(=O)c3ccccc23)ccc1F)N1CCN(C(=O)C2CC2)CC1 [olaparib, 4-[(3-[(4-cyclopropylcarbonyl)piperazin-4-yl]carbonyl)-4-fluorophenyl]methyl(2H)phthalazin-1-one]
Solubility of olaparib at room temperature ([1]; AcOH): >20.0 wt %
Solubility of olaparib at room temperature ([1]; DMSO): >19.1 wt %
solubility ([1]; acetic acid (AcOH), AcOH): > 210 mg/mL
solubility ([1]; DMSO): > 210 mg/mL
Solubility of olaparib at 60° C. ([2]; ACN): <2.1 wt %
Solubility of olaparib at 60° C. ([2]; Cyclohexane): <2.1 wt %
Solubility of olaparib at 60° C. ([2]; DMAc): >23.5 wt %
Solubility of olaparib at 60° C. ([2]; EA): <1.8 wt %
Solubility of olaparib at 60° C. ([2]; EtOH): 2.6-2.9 wt %
Solubility of olaparib at 60° C. ([2]; IPA): <2.1 wt %
Solubility of olaparib at 60° C. ([2]; MeOH): 6.7-8.8 wt %
Solubility of olaparib at 60° C. ([2]; Pyridine): >21.5 wt %
Solubility of olaparib at 60° C. ([2]; THF): <1.9 wt %
Solubility of olaparib at 60° C. ([2]; Toluene): <1.9 wt %
Solubility of olaparib at 60° C. ([2]; Xylenes): <1.9 wt %
solubility ([2]; acetonitrile (ACN), organic solvent or mixture, ACN): < 16.2 mg/mL
solubility ([2]; ethanol (EtOH), organic solvent or mixture, EtOH): 21 to 23 mg/mL (≈ 48.3 to 52.9 mM)
solubility ([2]; isopropanol (IPA), organic solvent or mixture, IPA): < 16.2 mg/mL
solubility ([2]; methanol (MeOH), organic solvent or mixture, MeOH): 53 to 70 mg/mL (≈ 122 to 161 mM)
Solubility of olaparib at 60° C. ([2]; n-butanol): <2.1 wt %
Solubility of olaparib at 60° C. ([2]; n-heptane): <2.4 wt %
solubility ([2]; organic solvent or mixture, Cyclohexane): < 16.2 mg/mL
solubility ([2]; organic solvent or mixture, DMAc): > 220 mg/mL
solubility ([2]; organic solvent or mixture, EA): < 16.2 mg/mL
solubility ([2]; organic solvent or mixture, Pyridine): > 210 mg/mL
solubility ([2]; organic solvent or mixture, THF): < 16.9 mg/mL
solubility ([2]; organic solvent or mixture, Toluene): < 16.9 mg/mL
solubility ([2]; organic solvent or mixture, Xylenes): < 16.2 mg/mL
solubility ([2]; organic solvent or mixture, n-butanol): < 16.9 mg/mL
solubility ([2]; organic solvent or mixture, n-heptane): < 16.2 mg/mL
Solubility of olaparib at 60° C. ([2]; water): <1.6 wt %
solubility ([2]; water): < 16.2 mg/mL
